These results are taken from patent US20060252710A1, “6-11 Bridged oxime erythromycin derivatives” (priority 2005, published 2006).

Assay in all cases: MIC by micro-dilution method
Common to all, as to format: cell-based
A general note: Dilution methods test growth across graded concentrations, often in twofold steps.

Assay [1] deals with H. influenzae 33929. The note with it: Haemophilus influenzae. Here is the method: (§1) Antibacterial activity studies may be carried out using suitable assays as are known in the art. Susceptibility tests can be used to quantitatively measure the in vitro activity of an antimicrobial agent against a given bacterial isolate. Compounds are tested for in vitro antibacterial activity by a micro-dilution method. Minimal Inhibitory Concentration (MIC) is determined in 96 well microtiter plates utilizing the appropriate Mueller Hinton Broth medium (CAMHB) for the observed bacterial isolates. Antimicrobial agents are serially diluted (2-fold) in DMSO to produce a concentration range from about 64 μg/ml to about 0.03 μg/ml. The diluted compounds (2 μl/well) are then transferred into sterile, uninoculated CAMHB (0.2 mL) by use of a 96 fixed tip-pipeting station. The inoculum for each bacterial strain is standardized to 5×10^5 CFU/mL by optical comparison to a 0.5 McFarland turbidity standard. The plates are inoculated with 10 μI/well of adjusted bacterial inoculum. The 96 well plates are covered and incubated at 35+/−2° C. for 24 hours in ambient air environment. Following incubation, plate wells are visually examined by Optical Density measurement for the presence of growth (turbidity). The lowest concentration of an antimicrobial agent at which no visible growth occurs is defined as the MIC.
(§2) All in vitro testing follows the guidelines described in the Approved Standards M7-A4 protocol, published by the National Committee for Clinical Laboratory Standards (NCCLS).
(§3) The values in the table are minimum inhibition concentration (MIC) and are expressed as ug/mL. Assays for MIC are described above.

The subject of assay [2] is S. aureus 27660. To be noted: Staphylococcus aureus. As to the method: as §1, §2, §3
The subject of assay [3] is S. aureus 29213. The note with it: Staphylococcus aureus. Here is the method: as §1, §2, §3
Assay [4] concerns S. aureus 33591. To be noted: Staphylococcus aureus. As to the method: as §1, §2, §3
Assay [5] has as its system S. pneumoniae 700906. The note with it: Streptococcus pneumoniae. As to the method: as §1, §2, §3
The subject of assay [6] is S. pneumoniae 7701. The note with it: Streptococcus pneumoniae. As to the method:
as §1, §2, §3

For assay [7], the system named is S. pyogenes 1323. The note with it: Streptococcus pyogenes. As to the method: as §1, §2, §3
Assay [8] relates to S. pyogenes 2912. The note with it: Streptococcus pyogenes. As to the method:
as §1, §2, §3

Setting [9] is: Table V, compounds of this invention, read-out: minimum inhibition concentration H. influenzae 33929.
Setting [10] is: Table V, compounds of this invention, read-out: minimum inhibition concentration S. aureus 27660.
The mark [11] stands for this setting: Table V, compounds of this invention, read-out: minimum inhibition concentration S. aureus 29213.
Setting [12] is: Table V, compounds of this invention, read-out: minimum inhibition concentration S. aureus 33591.
[13] abbreviates: Table V, compounds of this invention, read-out: minimum inhibition concentration S. pneumoniae 700906.
[14] abbreviates: Table V, compounds of this invention, read-out: minimum inhibition concentration S. pneumoniae 7701.
[15] abbreviates: Table V, compounds of this invention, read-out: minimum inhibition concentration S. pyogenes 1323.
Where [16] appears, read: Table V, compounds of this invention, read-out: minimum inhibition concentration S. pyogenes 2912.
Where [17] appears, read: Table IV, species from U.S. Pat. No. 6,878,691 and US 2004/0053861, read-out: minimum inhibition concentration (MIC) H. influenzae 33929.
The mark [18] stands for this setting: Table IV, species from U.S. Pat. No. 6,878,691 and US 2004/0053861, read-out: minimum inhibition concentration (MIC) S. aureus 33591.
Where [19] appears, read: Table IV, species from U.S. Pat. No. 6,878,691 and US 2004/0053861, read-out: minimum inhibition concentration (MIC) S. pneumoniae 7701.
The mark [20] stands for this setting: Table IV, species from U.S. Pat. No. 6,878,691 and US 2004/0053861, read-out: minimum inhibition concentration (MIC) S. pyogenes 1323.
Setting [21] is: Table IV, species from U.S. Pat. No. 6,878,691 and US 2004/0053861, read-out: minimum inhibition concentration (MIC) S. pyogenes 2912.
Where [22] appears, read: Table IV, species from U.S. Pat. No. 6,878,691 and US 2004/0053861, read-out: minimum inhibition concentration (MIC) S. aureus 27660.
[23] abbreviates: Table IV, species from U.S. Pat. No. 6,878,691 and US 2004/0053861, read-out: minimum inhibition concentration (MIC) S. aureus 29213.
Setting [24] is: Table IV, species from U.S. Pat. No. 6,878,691 and US 2004/0053861, read-out: minimum inhibition concentration (MIC) S. pneumoniae 700906.

Converted amounts (≈) assume the structure as drawn. Where two headings read alike, the source gives them in different places. Some results are limits rather than exact numbers.

In the case of `CC[C@H]1OC(=O)[C@H](C)C(=O)[C@H](C)[C@@H](O[C@@H]2O[C@H](C)C[C@H](N(C)C)[C@H]2O)[C@@]2(C)C[C@@H](C)C(=O)[C@H](C)[C@@H](OC/C(=N\OCc3ccc4oc(N)nc4c3)CO2)[C@]1(C)O` [Compound B3], the MIC was 2 µg/mL (≈ 2.54 µM) in assay [1] (setting [9]); not above 0.06 µg/mL in assay [2] (setting [10]); not above 0.06 µg/mL in assay [3] (setting [11]); 32 µg/mL (≈ 40.6 µM) in assay [4] (setting [12]); 0.25 µg/mL (≈ 0.317 µM) in assay [5] (setting [13]); 0.125 µg/mL (≈ 0.158 µM) in assay [6] (setting [14]). The MIC came to 0.5 µg/mL (≈ 0.634 µM) in assay [7] (setting [15]) and 4 µg/mL (≈ 5.07 µM) in assay [8] (setting [16]).
For `CC[C@H]1OC(=O)[C@H](C)C(=O)[C@H](C)[C@@H](O[C@@H]2O[C@H](C)C[C@H](N(C)C)[C@H]2O)[C@@]2(C)C[C@@H](C)C(=O)[C@H](C)[C@@H](OC/C(=N\OCc3ccc4nc(N)sc4c3)CO2)[C@]1(C)O` [Compound B1], the MIC in assay [1] (setting [9]) was 2 µg/mL (≈ 2.48 µM); in assay [2] (setting [10]), not above 0.06 µg/mL; in assay [3] (setting [11]) it was not above 0.06 µg/mL; in assay [4] (setting [12]), more than 64 µg/mL; in assay [5] (setting [13]), 1 µg/mL (≈ 1.24 µM); in assay [6] (setting [14]) it was not above 0.06 µg/mL. In addition, the values for the MIC in assay [7] (setting [15]) and in assay [8] (setting [16]) were 0.25 µg/mL (≈ 0.311 µM) and 4 µg/mL (≈ 4.97 µM), respectively.
As for `CC[C@H]1OC(=O)[C@H](C)[C@@H](O)[C@H](C)[C@@H](O[C@@H]2O[C@H](C)C[C@H](N(C)C)[C@H]2O)[C@@]2(C)C[C@@H](C)C(=N)[C@H](C)[C@@H](OC/C(=N\OCc3ccccc3)CO2)[C@]1(C)O` [Compound A5], the MIC was more than 64 µg/mL in assay [1] (setting [17]); more than 64 µg/mL in assay [4] (setting [18]); 2 µg/mL (≈ 2.73 µM) in assay [6] (setting [19]); 64 µg/mL (≈ 87.2 µM) in assay [7] (setting [20]); more than 64 µg/mL in assay [8] (setting [21]).
On to `CC[C@H]1OC(=O)[C@H](C)[C@@H](OC(=O)Cc2cccnc2)[C@H](C)[C@@H](O[C@@H]2O[C@H](C)C[C@H](N(C)C)[C@H]2O)[C@@]2(C)C[C@@H](C)/C(=N\C(C)=O)[C@H](C)[C@@H](OC/C(=C\C=C\c3ccccc3)CO2)[C@]1(C)O` [Compound A6], for which the MIC is more than 64 µg/mL in assay [1] (setting [17]); 1 µg/mL (≈ 1.12 µM) in assay [2] (setting [22]); 1 µg/mL (≈ 1.12 µM) in assay [3] (setting [23]); 16 µg/mL (≈ 18 µM) in assay [4] (setting [18]); 8 µg/mL (≈ 8.99 µM) in assay [5] (setting [24]); 1 µg/mL (≈ 1.12 µM) in assay [6] (setting [19]). The MIC in assay [7] (setting [20]) is 2 µg/mL (≈ 2.25 µM); in assay [8] (setting [21]), 8 µg/mL (≈ 8.99 µM).
Turning to `CC[C@H]1OC(=O)[C@H](C)C(=O)[C@H](C)[C@@H](O[C@@H]2O[C@H](C)C[C@H](N(C)C)[C@H]2O)[C@@]2(C)C[C@@H](C)/C(=N\C(C)=O)[C@H](C)[C@@H](OC/C(=N\OCc3ccc4oc(N)nc4c3)CO2)[C@]1(C)O` [Compound B4], the MIC in assay [1] (setting [9]) was determined as 4 µg/mL (≈ 4.82 µM); in assay [2] (setting [10]), 0.125 µg/mL (≈ 0.151 µM); in assay [3] (setting [11]) it was 0.125 µg/mL (≈ 0.151 µM); in assay [4] (setting [12]) it was 32 µg/mL (≈ 38.6 µM); in assay [5] (setting [13]) it was 0.125 µg/mL (≈ 0.151 µM); in assay [6] (setting [14]), 0.125 µg/mL (≈ 0.151 µM). For the same molecule, the MIC was found to be 0.5 µg/mL (≈ 0.602 µM) in assay [7] (setting [15]) and 1 µg/mL (≈ 1.2 µM) in assay [8] (setting [16]).
With `CC[C@H]1OC(=O)[C@H](C)C(=O)[C@H](C)[C@@H](O[C@@H]2O[C@H](C)C[C@H](N(C)C)[C@H]2O)[C@@]2(C)C[C@@H](C)/C(=N\C(C)=O)[C@H](C)[C@@H](OC/C(=N\OCc3cn4ccncc4n3)CO2)[C@]1(C)O` [Compound A3], the MIC was 8 µg/mL (≈ 9.82 µM) in assay [1] (setting [17]); 0.25 µg/mL (≈ 0.307 µM) in assay [2] (setting [22]); 0.25 µg/mL (≈ 0.307 µM) in assay [3] (setting [23]); more than 64 µg/mL in assay [4] (setting [18]); 0.13 µg/mL (≈ 0.16 µM) in assay [5] (setting [24]); 2 µg/mL (≈ 2.45 µM) in assay [6] (setting [19]). For the same molecule, the figures for the MIC in assay [7] (setting [20]) and in assay [8] (setting [21]) were 16 µg/mL (≈ 19.6 µM) and 32 µg/mL (≈ 39.3 µM), respectively.
As to `CC[C@H]1OC(=O)[C@H](C)C(=O)[C@H](C)[C@@H](O[C@@H]2O[C@H](C)C[C@H](N(C)C)[C@H]2O)[C@@]2(C)C[C@@H](C)/C(=N\C(C)=O)[C@H](C)[C@@H](OC/C(=N\OCc3nccc4ccccc34)CO2)[C@]1(C)O` [Compound A1], the MIC in assay [1] (setting [17]) is 8 µg/mL (≈ 9.7 µM); in assay [2] (setting [22]), 0.13 µg/mL (≈ 0.158 µM); in assay [3] (setting [23]), 0.25 µg/mL (≈ 0.303 µM); in assay [4] (setting [18]), more than 64 µg/mL; in assay [5] (setting [24]), 0.25 µg/mL (≈ 0.303 µM); in assay [6] (setting [19]), 0.5 µg/mL (≈ 0.606 µM). The MIC in assay [7] (setting [20]) was 0.5 µg/mL (≈ 0.606 µM); in assay [8] (setting [21]), 8 µg/mL (≈ 9.7 µM).
As to `CC[C@H]1OC(=O)[C@@](C)(F)C(=O)[C@H](C)[C@@H](O[C@@H]2O[C@H](C)C[C@H](N(C)C)[C@H]2O)[C@@]2(C)C[C@@H](C)/C(=N\C(C)=O)[C@H](C)[C@@H](OC/C(=N\OCc3ccc4onc(N)c4c3)CO2)[C@]1(C)O` [Compound B2], the MIC in assay [1] (setting [9]) is 2 µg/mL (≈ 2.36 µM); in assay [2] (setting [10]), not above 0.06 µg/mL; in assay [3] (setting [11]), 0.125 µg/mL (≈ 0.147 µM); in assay [4] (setting [12]), more than 64 µg/mL; in assay [5] (setting [13]) it was 0.5 µg/mL (≈ 0.59 µM); in assay [6] (setting [14]), 0.125 µg/mL (≈ 0.147 µM). Also, the MIC in assay [7] (setting [15]) was 0.5 µg/mL (≈ 0.59 µM); in assay [8] (setting [16]) it was 2 µg/mL (≈ 2.36 µM).
As for `CC[C@H]1OC(=O)[C@H](C)C(=O)[C@H](C)[C@@H](O[C@@H]2O[C@H](C)C[C@H](N(C)C)[C@H]2O)[C@@]2(C)C[C@@H](C)/C(=N\C(C)=O)[C@H](C)[C@@H](OC/C(=N\OCc3ccc4nccnc4c3)CO2)[C@]1(C)O` [Compound A2], the MIC is 16 µg/mL (≈ 19.4 µM) in assay [1] (setting [17]); 0.25 µg/mL (≈ 0.303 µM) in assay [2] (setting [22]); 0.5 µg/mL (≈ 0.605 µM) in assay [3] (setting [23]); more than 64 µg/mL in assay [4] (setting [18]); 0.25 µg/mL (≈ 0.303 µM) in assay [5] (setting [24]); 0.5 µg/mL (≈ 0.605 µM) in assay [6] (setting [19]). The results for the MIC in assay [7] (setting [20]) and in assay [8] (setting [21]) were 1 µg/mL (≈ 1.21 µM) and 16 µg/mL (≈ 19.4 µM), respectively.
As to `CC[C@H]1OC(=O)[C@H](C)[C@@H](OC2C[C@@](C)(OC)[C@@H](OC(C)=O)[C@H](C)O2)[C@H](C)[C@@H](O[C@@H]2O[C@H](C)C[C@H](N(C)C)[C@H]2O)[C@@]2(C)C[C@@H](C)C(=O)[C@H](C)[C@@H](OCC(=Cc3cnc4ccccc4c3)CO2)[C@]1(C)O` (stereo partly shown) [Compound A4], the MIC is more than 64 µg/mL in assay [1] (setting [17]), 8 µg/mL (≈ 8.38 µM) in assay [6] (setting [19]), 64 µg/mL (≈ 67 µM) in assay [7] (setting [20]) and 64 µg/mL (≈ 67 µM) in assay [8] (setting [21]).
